According to patent publication US9951055B2, “Thiazole-based inhibitors of scavenger receptor BI” (THE BROAD INSTITUTE, INC., priority 2012, dated 2018):
Positions count from the first letter of the chain named.

Key:
C384S SR-BI = biological target: T1, C384S SR-BI (Mus musculus, UniProt Q61009, C384S); assay: Radioactive HDL uptake assay (mutant SR-BI); assay type: cell-based, murine
T1 construct: expressed in transfected cells; host or cells: CHO cell line lacking LDL receptors (variant of ldlA[mSR-BI])
T1 sequence (Q61009 1-509 C384S): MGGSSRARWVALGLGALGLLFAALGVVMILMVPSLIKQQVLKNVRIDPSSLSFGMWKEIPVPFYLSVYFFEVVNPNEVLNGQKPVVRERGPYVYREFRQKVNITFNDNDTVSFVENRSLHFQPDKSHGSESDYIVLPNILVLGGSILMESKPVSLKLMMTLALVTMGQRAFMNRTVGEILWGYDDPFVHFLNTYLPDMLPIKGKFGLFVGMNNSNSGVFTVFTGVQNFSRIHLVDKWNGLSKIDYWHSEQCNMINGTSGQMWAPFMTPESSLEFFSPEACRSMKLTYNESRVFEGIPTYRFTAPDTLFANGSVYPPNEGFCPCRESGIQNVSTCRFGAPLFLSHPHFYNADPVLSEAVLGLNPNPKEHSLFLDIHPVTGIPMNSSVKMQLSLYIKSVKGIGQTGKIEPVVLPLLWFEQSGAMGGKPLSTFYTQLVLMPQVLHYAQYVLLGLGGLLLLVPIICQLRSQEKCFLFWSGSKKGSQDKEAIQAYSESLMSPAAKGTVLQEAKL
Source text: Radioactive HDL Uptake Assay (mutant SR-BI) (SA 9: AID No. 588837)
BLT-1 is known to interact at cysteine 384 of SR-BI (16). […] This assay is used to determine if the compounds work in a similar fashion to BLT-1 and require Cys384 to alter the binding of HDL particles and uptake of the lipid to the mutant SR-BI scavenger receptor, using an alternative means of labeling HDL-cholesterol particles and avoiding any type of fluorescence measurement. To measure this lipid uptake event, HDL particles are labeled with [^3H]cholesteryl ester and added to C384S SR-BI cells. Cells take up HDL lipids via the mutant SR-BI in 2 to 3 hours. After significant uptake of the HDL lipid, the radiolabel can be detected by liquid scintillation counting. The level of radioactivity correlates with the amount of HDL lipid uptake. The uptake of lipid from the HDL particles can be inhibited by the compound BLT-1 or when co-treated with an excess of unlabeled HDL. The mSR-BI cells utilized in the assay are a CHO cell line lacking expression of the LDL receptors and overexpressing the mutant scavenger receptor, C384S SR-BI.

murine SR-BI = biological target: T2, murine SR-BI (Mus musculus, UniProt Q61009); assay: DiI-HDL uptake assay (primary assay); assay type: cell-based
T2 construct: expressed in transfected cells; host or cells: ldlA[mSR-BI]; (CHO ldlA7 derivative lacking the LDL receptor)
T2 sequence (Q61009 1-509): T1 sequence (Q61009 1-509 C384S) with S384C
Source text: The following cell lines were used in this study: • ldlA[mSR-BI] is a Chinese hamster ovary (CHO) cell line that overexpresses murine SR-BI, isoform 1 (NP_058021) and was obtained from the Assay Provider (Krieger Laboratory). This cell line was used for the primary assay and several secondary assays. […] This cell line was obtained from the Assay Provider. Assays DiI-HDL Uptake Assay (Primary Assay AID Nos. 488896, 493194, 540354 588392, 588553, 588548, 588754, 588828, 588833)
ldlA[mSR-BI]cells were plated into 384-well plates at 30 μl per well and incubated overnight. As a measurable surrogate for cholesterol uptake, human HDL particles were treated with the lipophilic fluorescent dye DiI and exposed to ldlA[mSR-BI]cells in lipoprotein-free media (Ham's F12/0.5% fatty acid-free Bovine Serum Albumin (BSA)/25 mM HEPES pH 7.4 plus 10 μg protein/ml DiI-HDL). Cells took up the DiI via SR-BI over 3 hours in the presence of compound. After significant uptake of the DiI, the cells became fluorescent. The level of fluorescence correlates with the amount of DiI uptake and can be measured with a standard plate reader (here a PerkinElmer EnVision plate reader was used). The uptake of lipid (represented by DiI) was inhibited by the positive control compound BLT-1 or with an excess of HDL untreated with DiI. Primary HTS data were analyzed in Genedata Screener Assay Analyzer, and were normalized against DMSO and the positive control (1 μM BLT-1). For the HTS, the average of two replicates was used to rank order activity and to choose compounds for retests. For dose studies, percent (%) activity was determined for each concentration and the concentration response curves (CRCs) were generated with Genedata Condeseo.
To identify novel inhibitors, SR-BI-mediated lipid uptake was measured in an engineered cell line that minimized potential uptake by other mechanisms, including via the LDL receptor (1). ldlA[mSR-BI]cells overexpress murine isoform 1 and selectively take up HDL lipid at similar levels as “has been reported for cultured mouse adrenal cells, perfused organs, and liver, adrenal gland and ovary in vivo” (1). This primary cell-based assay was used in a pilot screen that identified BLTs 1 through 5 (12). The assay was slightly modified from the original protocol of Nieland et al. to increase throughput and to ease automation procedures.

CCCCCCC1CCCC1=NNC(N)=S (stereo not shown) [BLT-1, reference compound]
uptake of HDL in Cys384Ser mutant background (C384S SR-BI): does not significantly reduce uptake of HDL or efflux of cholesterol | reduction in signal (DiI-HDL uptake) (murine SR-BI; 1 μM, positive control in primary HTS): > 2.2 fold

COCC(=O)N1CCc2cc(-c3csc(NC(=O)c4cc(OC)cc(OC)c4)n3)ccc21 [Compound 137, 3,5-Dimethoxy-N-(4-(1-(2-methoxyacetyl)indolin-5-yl)thiazol-2-yl)benzamide]
uptake of HDL in Cys384Ser mutant background (C384S SR-BI): can reduce uptake and efflux in the mutant background | higher potency than ITX-5061 (murine SR-BI): approximately 15 fold | improved potency over the original hit (murine SR-BI): > 20 fold | selectivity (murine SR-BI): greater than 1000 | IC50 (murine SR-BI; read-out: IC50, DiI-HDL uptake): 2 nM
